Reference: patent US20070128217A1 (priority 2003, published 2007)

Tests used:
[1] = tested on: control sera (pooled serum of ten healthy LUMC hospital workers; commercial negative donor pooled serum from the Dutch bloodbank); type: binding, human; parameters: Binding of Control serum LUMC to linear peptides / Binding of Control serum Blood-bank to linear peptides / Binding of Control serum LUMC to looped peptides / Binding of Control Serum Blood-Bank to Looped peptides / Binding of Control serum LUMC to linear peptides of the protein M of SARS-CoV Urbani / Binding of Control serum Blood-bank to linear peptides of the protein M of SARS-CoV Urbani / Binding of Control serum LUMC to looped peptides of the protein M of SARS-CoV Urbani / Binding of Control Serum Blood-Bank to Looped peptides of the protein M of SARS-CoV Urbani: unit not given here
[2] = tested on: antibodies in sera from SARS patients (sera 1a, 1b, 2, 6, 37, 62, London, SARS-yellow, SARS-green); type: binding, human; parameters: Binding of serum 6 to linear peptides of protein X1 of SARS-CoV Urbani / Binding of serum 37 to linear peptides of protein X1 of SARS-CoV Urbani / Binding of serum 6 to looped/cyclic peptide (PEPSCAN-ELISA) / Binding of serum 37 to looped/cyclic peptide (PEPSCAN-ELISA) / Binding of serum 37 to looped/cyclic peptides of protein X1 of SARS-CoV Urbani / Binding of serum 6 to linear peptides of protein X2 / Binding of serum 37 to linear peptides of protein X2 / Binding of serum 37 to looped/cyclic peptides of protein X2 of SARS-CoV Urbani / Binding of serum 6 to linear peptides of protein M of SARS-CoV Urbani / Binding of serum 37 to linear peptides of protein M of SARS-CoV Urbani / Binding of serum 6 to looped/cyclic peptides of protein M of SARS-CoV Urbani / Binding of serum 37 to looped/cyclic peptides of protein M of SARS-CoV Urbani / Binding of serum 6 to linear peptides of protein X3 of SARS-CoV Urbani / Binding of serum 37 to linear peptides of protein X3 of SARS-CoV Urbani / Binding of serum 37 to looped/cyclic peptides of protein X3 of SARS-CoV Urbani / Binding of serum 6 to linear peptides of protein X4 of SARS-CoV Urbani / Binding of serum 37 to linear peptides of protein X4 of SARS-CoV Urbani / Binding of serum 37 to looped/cyclic peptides of protein X4 of SARS-CoV Urbani / Binding of serum 6 to linear peptides of protein X5 of SARS-CoV Urbani / Binding of serum 37 to linear peptides of protein X5 of SARS-CoV Urbani / Binding of serum 37 to looped/cyclic peptides of protein X5 of SARS-CoV Urbani / Binding of serum 6 to linear peptides of protein N of SARS-CoV Urbani / Binding of serum 37 to linear peptides of protein N of SARS-CoV Urbani / Binding of serum 6 to linear peptide (PEPSCAN-ELISA) / Binding of serum 1a to looped/cyclic peptides of protein N of SARS-CoV Urbani / Binding of serum 1b to looped/cyclic peptides of protein N of SARS-CoV Urbani / Binding of serum 2 to looped/cyclic peptides of protein N of SARS-CoV Urbani / Binding of serum 6 to looped/cyclic peptides of protein N of SARS-CoV Urbani / Binding of serum 37 to looped/cyclic peptides of protein N of SARS-CoV Urbani / Binding of serum 62 to looped/cyclic peptides of protein N of SARS-CoV Urbani / Binding of serum London to looped/cyclic peptides of protein N of SARS-CoV Urbani / Binding of serum SARS-green to looped/cyclic peptides of protein N of SARS-CoV Urbani: unit not given here
[3] = tested on: rabbit serum obtained by immunizing a rabbit with the SARS-CoV strain Frankfurt 1; type: binding; parameters: Binding of a rabbit serum to linear peptides / Binding of a rabbit serum to looped peptides / Rabbit serum linear peptides / Rabbit serum looped peptides / Binding of a rabbit serum to linear peptides of protein N of SARS-CoV Urbani (Rabbit serum linear peptides) / Binding of a rabbit serum to looped/cyclic peptides of protein N of SARS-CoV Urbani (Rabbit serum looped peptides): unit not given here

TRGNTYSTAWLCALG
Binding of Control Serum Blood-Bank to Looped peptides [1]: 0.4 | Binding of Control serum Blood-bank to linear peptides [1]: 0.7 | Binding of Control serum LUMC to linear peptides [1]: 0.6 | Binding of Control serum LUMC to looped peptides [1]: 0.6 | Binding of serum 1a to linear peptides of protein X5 of SARS-CoV Urbani [2]: 0.8 | Binding of serum 1a to looped/cyclic peptides of protein X5 of SARS-CoV Urbani [2]: 0.4 | Binding of serum 1b to linear peptides of protein X5 of SARS-CoV Urbani [2]: 0.6 | Binding of serum 1b to looped/cyclic peptides of protein X5 of SARS-CoV Urbani [2]: 0.1 | Binding of serum 2 to linear peptides of protein X5 of SARS-CoV Urbani [2]: 0.6 | Binding of serum 2 to looped/cyclic peptides of protein X5 of SARS-CoV Urbani [2]: 0.4 | Binding of serum 6 to linear peptides of protein X5 of SARS-CoV Urbani [2]: 0.6 | Binding of serum 6 to looped/cyclic peptides of protein X5 of SARS-CoV Urbani [2]: 0.3 | Binding of serum 37 to linear peptides of protein X5 of SARS-CoV Urbani [2]: 0.8 | Binding of serum 37 to looped/cyclic peptides of protein X5 of SARS-CoV Urbani [2]: 0.4 | Binding of serum 62 to linear peptides of protein X5 of SARS-CoV Urbani [2]: 0.8 | Binding of serum 62 to looped/cyclic peptides of protein X5 of SARS-CoV Urbani [2]: 0.6 | Binding of serum London to linear peptides of protein X5 of SARS-CoV Urbani [2]: 0.7 | Binding of serum London to looped/cyclic peptides of protein X5 of SARS-CoV Urbani [2]: 0.2 | Binding of serum SARS-green to linear peptides of protein X5 of SARS-CoV Urbani [2]: 0.6 | Binding of serum SARS-green to looped/cyclic peptides of protein X5 of SARS-CoV Urbani [2]: 0.3 | Binding of serum SARS-yellow to linear peptides of protein X5 of SARS-CoV Urbani [2]: 0.5 | Binding of serum SARS-yellow to looped/cyclic peptides of protein X5 of SARS-CoV Urbani [2]: 0.3 | Rabbit serum linear peptides [3]: 0.7 | Rabbit serum looped peptides [3]: 0.0

FVASFRLFARTRSMW
Binding of Control Serum Blood-Bank to Looped peptides of the protein M of SARS-CoV Urbani [1]: 0.6 | Binding of Control serum Blood-bank to linear peptides of the protein M of SARS-CoV Urbani [1]: 0.9 | Binding of Control serum LUMC to linear peptides of the protein M of SARS-CoV Urbani [1]: 1.0 | Binding of Control serum LUMC to looped peptides of the protein M of SARS-CoV Urbani [1]: 0.7 | Binding of serum 1a to linear peptides of protein M of SARS-CoV Urbani [2]: 0.9 | Binding of serum 1b to linear peptides of protein M of SARS-CoV Urbani [2]: 1.1 | Binding of serum 2 to linear peptides of protein M of SARS-CoV Urbani [2]: 0.7 | Binding of serum 6 to linear peptides of protein M of SARS-CoV Urbani [2]: 1.3 | Binding of serum 37 to linear peptides of protein M of SARS-CoV Urbani [2]: 0.6 | Binding of serum 62 to linear peptides of protein M of SARS-CoV Urbani [2]: 0.6 | Binding of serum London to linear peptides of protein M of SARS-CoV Urbani [2]: 0.9 | Binding of serum SARS-green to linear peptides of protein M of SARS-CoV Urbani [2]: 0.7 | Binding of serum SARS-yellow to linear peptides of protein M of SARS-CoV Urbani [2]: 0.3 | Recognition of the peptide by sera of SARS-CoV infected individuals, and form (linear, looped/cyclic) in which it is recognized [2]: recognized in looped/cyclic form | Rabbit serum linear peptides [3]: 0.2 | Rabbit serum looped peptides [3]: 0.3

IYSHLLLVAAGMEAQ
Binding of Control Serum Blood-Bank to Looped peptides [1]: 0.4 | Binding of Control serum Blood-bank to linear peptides [1]: 0.5 | Binding of Control serum LUMC to linear peptides [1]: 0.5 | Binding of Control serum LUMC to looped peptides [1]: 0.5 | Binding of serum 1a to linear peptides of protein X1 of SARS-CoV Urbani [2]: 0.6 | Binding of serum 1a to looped/cyclic peptide (PEPSCAN-ELISA) [2]: 0.5 | Binding of serum 1b to linear peptides of protein X1 of SARS-CoV Urbani [2]: 0.5 | Binding of serum 1b to looped/cyclic peptide (PEPSCAN-ELISA) [2]: 0.4 | Binding of serum 2 to linear peptides of protein X1 of SARS-CoV Urbani [2]: 0.5 | Binding of serum 2 to looped/cyclic peptide (PEPSCAN-ELISA) [2]: 0.3 | Binding of serum 6 to linear peptides of protein X1 of SARS-CoV Urbani [2]: 0.4 | Binding of serum 6 to looped/cyclic peptide (PEPSCAN-ELISA) [2]: 0.3 | Binding of serum 37 to linear peptides of protein X1 of SARS-CoV Urbani [2]: 0.6 | Binding of serum 37 to looped/cyclic peptide (PEPSCAN-ELISA) [2]: 0.5 | Binding of serum 62 to linear peptides of protein X1 of SARS-CoV Urbani [2]: 0.6 | Binding of serum 62 to looped/cyclic peptide (PEPSCAN-ELISA) [2]: 0.5 | Binding of serum London to linear peptides of protein X1 of SARS-CoV Urbani [2]: 0.3 | Binding of serum London to looped/cyclic peptide (PEPSCAN-ELISA) [2]: 0.2 | Binding of serum SARS-green to linear peptides of protein X1 of SARS-CoV Urbani [2]: 0.2 | Binding of serum SARS-green to looped/cyclic peptide (PEPSCAN-ELISA) [2]: 0.2 | Binding of serum SARS-yellow to linear peptides of protein X1 of SARS-CoV Urbani [2]: 0.3 | Binding of serum SARS-yellow to looped/cyclic peptide (PEPSCAN-ELISA) [2]: 0.2 | Binding of a rabbit serum to linear peptides [3]: 0.1 | Binding of a rabbit serum to looped peptides [3]: 0.4

TIDGSSGVANPAMDP
Binding of Control Serum Blood-Bank to Looped peptides [1]: 0.4 | Binding of Control serum Blood-bank to linear peptides [1]: 0.4 | Binding of Control serum LUMC to linear peptides [1]: 0.6 | Binding of Control serum LUMC to looped peptides [1]: 0.4 | Binding of serum 1a to linear peptides of protein X1 of SARS-CoV Urbani [2]: 0.6 | Binding of serum 1a to looped/cyclic peptides of protein X1 of SARS-CoV Urbani [2]: 0.5 | Binding of serum 1b to linear peptides of protein X1 of SARS-CoV Urbani [2]: 0.6 | Binding of serum 1b to looped/cyclic peptides of protein X1 of SARS-CoV Urbani [2]: 0.4 | Binding of serum 2 to linear peptides of protein X1 of SARS-CoV Urbani [2]: 0.6 | Binding of serum 2 to looped/cyclic peptides of protein X1 of SARS-CoV Urbani [2]: 0.4 | Binding of serum 6 to linear peptides of protein X1 of SARS-CoV Urbani [2]: 0.6 | Binding of serum 6 to looped/cyclic peptides of protein X1 of SARS-CoV Urbani [2]: 0.3 | Binding of serum 37 to linear peptides of protein X1 of SARS-CoV Urbani [2]: 0.6 | Binding of serum 37 to looped/cyclic peptides of protein X1 of SARS-CoV Urbani [2]: 0.3 | Binding of serum 62 to linear peptides of protein X1 of SARS-CoV Urbani [2]: 0.6 | Binding of serum 62 to looped/cyclic peptides of protein X1 of SARS-CoV Urbani [2]: 0.3 | Binding of serum London to linear peptides of protein X1 of SARS-CoV Urbani [2]: 0.4 | Binding of serum London to looped/cyclic peptides of protein X1 of SARS-CoV Urbani [2]: 0.2 | Binding of serum SARS-green to linear peptides of protein X1 of SARS-CoV Urbani [2]: 0.4 | Binding of serum SARS-green to looped/cyclic peptides of protein X1 of SARS-CoV Urbani [2]: 0.3 | Binding of serum SARS-yellow to linear peptides of protein X1 of SARS-CoV Urbani [2]: 0.3 | Binding of serum SARS-yellow to looped/cyclic peptides of protein X1 of SARS-CoV Urbani [2]: 0.2 | Binding of a rabbit serum to linear peptides [3]: 0.1 | Binding of a rabbit serum to looped peptides [3]: 0.4

IAIWNLDVIISSIVR
Binding of Control Serum Blood-Bank to Looped peptides of the protein X3 of SARS-CoV Urbani [1]: 0.7 | Binding of Control serum Blood-bank to linear peptides of the protein X3 of SARS-CoV Urbani [1]: 0.6 | Binding of Control serum LUMC to linear peptides of the protein X3 of SARS-CoV Urbani [1]: 0.5 | Binding of Control serum LUMC to looped peptides of the protein X3 of SARS-CoV Urbani [1]: 0.7 | Binding of serum 1a to linear peptides of protein X3 of SARS-CoV Urbani [2]: 0.7 | Binding of serum 1a to looped/cyclic peptides of protein X3 of SARS-CoV Urbani [2]: 0.7 | Binding of serum 1b to linear peptides of protein X3 of SARS-CoV Urbani [2]: 0.5 | Binding of serum 1b to looped/cyclic peptides of protein X3 of SARS-CoV Urbani [2]: 0.3 | Binding of serum 2 to linear peptides of protein X3 of SARS-CoV Urbani [2]: 0.6 | Binding of serum 2 to looped/cyclic peptides of protein X3 of SARS-CoV Urbani [2]: 0.6 | Binding of serum 6 to linear peptides of protein X3 of SARS-CoV Urbani [2]: 0.5 | Binding of serum 6 to looped/cyclic peptides of protein X3 of SARS-CoV Urbani [2]: 0.4 | Binding of serum 37 to linear peptides of protein X3 of SARS-CoV Urbani [2]: 0.5 | Binding of serum 37 to looped/cyclic peptides of protein X3 of SARS-CoV Urbani [2]: 0.6 | Binding of serum 62 to linear peptides of protein X3 of SARS-CoV Urbani [2]: 0.6 | Binding of serum 62 to looped/cyclic peptides of protein X3 of SARS-CoV Urbani [2]: 0.5 | Binding of serum London to linear peptides of protein X3 of SARS-CoV Urbani [2]: 0.6 | Binding of serum London to looped/cyclic peptides of protein X3 of SARS-CoV Urbani [2]: 0.2 | Binding of serum SARS-green to linear peptides of protein X3 of SARS-CoV Urbani [2]: 0.3 | Binding of serum SARS-green to looped/cyclic peptides of protein X3 of SARS-CoV Urbani [2]: 0.0 | Binding of serum SARS-yellow to linear peptides of protein X3 of SARS-CoV Urbani [2]: 0.4 | Binding of serum SARS-yellow to looped/cyclic peptides of protein X3 of SARS-CoV Urbani [2]: 0.6 | Rabbit serum linear peptides [3]: 0.3 | Rabbit serum looped peptides [3]: 0.3
